Patent publication US12708620B2, “Prodrugs and medical uses thereof” (priority 2018, dated 2026)

What was measured:
[1] = system: MDA-MB-231 tumor xenograft; assay: triple negative breast cancer xenograft model; type: in vivo, BALB/c Nude Mice; settings: MDA-MB-231 xenograft; single treatment cycle
[2] = system: panel of cancer cell lines; assay: cytotoxicity across the tested cancer cell lines (summary statements); type: cell-based, human
Protocol: The IC50 values were obtained using the resazurin-based potency assay under anoxic (<0.01% O2) and/or normoxic conditions (21% O2). The hypoxia cytotoxicity ratio (HCR) is calculated as the ratio of IC50 value […] (HCR=IC50 normoxia/IC50 anoxia).
For anoxic condition, the complete medium for each cell line (25 ml in a T25 or 80 ml in a T80) was equilibrated in the anoxic chamber 48 h before use to allow an as large as possible interchange between media and atmosphere, agitating the flask once a day and just before use. The 96-well plates for cell seeding and the 96-well plates for preparation of a mother plate containing the compound to be tested (e.g. Cpd.11 Ms) at appropriate concentrations as well as disposable reagent reservoirs and pipet tips that are required for cell seeding under anoxic conditions were placed in anoxia at least 72 h before use. […]
Cell seeding was performed starting from a cell suspension (70% confluent flasks of cells). Appropriate cell numbers/volumes were used at the pre-determined cell density (typically 100 μl/well) as determined by performing a growth curve experiment were calculated. […]

[3] = preliminary toxicology study, intravenous administration; type: in vivo, dog
Protocol: Preliminary toxicology studies of the intravenous administration of Cpd.11 Ms in rats and dogs according to a dosing regimen consisting of 3 consecutive days of administration in a 3 weekly cycle (QDx3/cycle) have shown that potential haematological toxicity in tissues such as the bone marrow, the thymus and lymph nodes (known to have hypoxic niches) can be minimized at dosages at or below 400 mg/kg in the rat and at or below 100 mg/kg in the dog. As such, these levels correspond to 2360 mg/m^2 and 2000 mg/m^2, respectively, in human subjects. […] Alternative dosing regimens also include weekly administration for up to 3 or 4 consecutive times of each 3 or 4 weekly cycle. In addition, also an initial dose of QDx3 or QDx5 could be combined with less frequent administration schedules that may still allow a therapeutic effect over tumor growth and development, such as up to 3 or 4 weekly dosages in 3 to 4 weekly cycles, or once a month (or every three-four weeks) schedules that be applied with or without the parallel treatment with the appropriate standard-of-care protocols.

## CCN1CCN(C(=O)c2cc(N(CCBr)CCOS(C)(=O)=O)c(S(C)(=O)=O)cc2[N+](=O)[O-])CC1.CS(=O)(=O)O [Cpd.11 Ms, 4-(5-((2-bromoethyl) (2-((methylsulfonyl)oxy)ethyl)amino)-4-(methylsulfonyl)-2-nitrobenzoyl)-1-ethylpiperazin-1-ium methanesulfonate]
[1]
  tumour growth: tumour growth rate reduction
[2]; across cell lines
  hypoxic cytotoxic ratio: ≥ 10
[2]; pre-clinical models
  cytotoxicity against cancer cell lines resistant to cisplatin and/or chlorambucil: highly cytotoxic
[3]; dog, intravenous, QDx3 in a 3 weekly cycle
  dosage at which potential haematological toxicity (bone marrow, thymus, lymph nodes) can be minimized: ≤ 100 mg/kg
[3]; from 100 mg/kg in the dog
  corresponding level in human subjects of the dog dosage: 2000 mg/m^2
